Values joined by “and” are separate entries in the source; they are usually repeats but may differ in a detail not shown here. Equal entries are not always repeated. “Also recorded” adds a separate entry of the source.
Tests used:
[1] = tested on: women presenting 0-120 hours after unprotected intercourse; assay: Prospective multicenter, single-blind randomized study of ulipristal acetate versus levonorgestrel as emergency contraception 0-120 hours after unprotected intercourse (Example 2); assay type: in vivo
Procedure: This was a prospective, single-blind (subject and sponsor blind, investigator not blind), randomized, multicenter, 2-arm parallel comparative study designed to evaluate the efficacy of a single dose of ulipristal acetate (30 mg tablets) compared to levonorgestrel (1.5 mg) administered for EC within 120 hours after unprotected intercourse. It was performed in 10 centers in Europe and 25 centers in the US. Women ([…]), with regular menstrual cycles (between 24 and 35 days and intra-individual variations less than or equal to 5 days), who presented for EC within 120 hours after unprotected intercourse at a participating study site and who met the inclusion/exclusion criteria were enrolled into the study after they signed informed consent form. Subjects were excluded from the study in case of ongoing pregnancy or breast-feeding or current use of hormonal contraception or IUD. The study medication (ulipristal acetate 30 mg or levonorgestrel 1.5 mg) was administered according to a random allocation procedure generated electronically. Treatment was administered orally immediately after all eligibility criteria (including negative urine pregnancy test) had been verified. At follow-up visit (5-7 days after expected onset of menses) a high-sensitivity urine pregnancy test was systematically performed. If the urine pregnancy was positive, this was confirmed by a serum β-hCG test. The pre-treatment serum specimen was also assayed for β-hCG to verify whether the pregnancy pre-dated intake of the study drug. Confirmed pregnancies were further evaluated by scrum quantitative hCG(s) and transvaginal ultrasound(s) to determine the estimated fertilization date. Based on previous similar clinical trials, pregnancy rates in the ulipristal acetate and levonorgestrel group were expected to be 1% and 1.7% respectively. […] For this comparison, the non-inferiority margin was set to 1.6 in odds ratio (a non-inferiority margin of 1.6 in odds ratio is equivalent to a non-inferiority margin of 1% in percent point with an assumed pregnancy rate with levonorgestrel of 1.7%) with a type I error rate of 5% (two-sided) and 85% power. In order to compensate for an anticipated lost to follow-up rate of 10%, 910 patients per group had to be included in the 0-72 hour time interval. Furthermore, recruitment of patients requesting emergency contraception between 72 h and 120 h was estimated to represent 1 out of 10 patients. Therefore, taking into account recruitment in the 72-120 h interval, 1022 patients per group were to be randomized for a total of 2044 patients. […] In order to ensure unbiased evaluation of pregnancy data, an independent, autonomous DSMB composed of two experts in the field of gynecology, one methodologist and one expert in ethical questions was established to review incidence of pregnancy with respect to unacceptability threshold and give recommendations during the course of the clinical trial. In addition, the DSMB assessed whether each pregnancy was “compatible” or “not compatible” with treatment failure based on available data.

[2] = tested on: women treated with ulipristal acetate in the two trials; assay: Pooled efficacy analysis of Example 1 and Example 2 (Example 3); assay type: in vivo; conditions: mITT pooled population
Description: When the efficacy data of women treated with ulipristal acetate in the two trials (Example 1 and Example 2) are grouped in a pooled analysis, further evidence of the efficacy of the method is provided.

[3] = used within 72 hours of UPI; cited from earlier work
[4] = tested on: women presenting 48-120 hours after unprotected intercourse; assay: Prospective multicenter, open label study of ulipristal acetate as emergency contraception 48-120 hours after unprotected intercourse (Example 1); assay type: in vivo; conditions: for Observed Pregnancy Rate (%): single 30 mg dose
Procedure: Women 18 and older who presented for emergency contraception at family planning clinics located in the United States, 48-120 hours after UPI and who met the inclusion/exclusion criteria were enrolled into the study after signing the IRB approved informed consent. The inclusion criteria were regular menstrual cycles 24-35 (+/−5) days in length, no current use of hormonal contraception, willingness not to use hormonal contraception until study completion, and agreement to use barrier methods of contraception from enrollment to study completion. Exclusion criteria included pregnancy, breastfeeding, IUD, tubal ligation or partner vasectomy, and uncertainty about recent menstrual history.
A total of up to three visits were scheduled over the course of the study. The first visit, considered Day 1, included the screening and treatment phases. A high sensitivity urine pregnancy test (level of detection 20 mIU/ml) was performed and a blood sample was taken and stored for later serum quantitative β-hCG testing to exclude pre-existing pregnancy if a pregnancy was detected during the study.
Women were provided daily diaries in which to record further acts of intercourse, contraception used, vaginal spotting or bleeding, concomitant medication and adverse events during study duration.
At follow-up visit (5-7 days after expected onset of menses) a high-sensitivity urine pregnancy test was systematically performed. If the urine pregnancy was positive, this was confirmed by a serum β-hCG test. The pre-treatment serum specimen was also assayed for β-hCG to verify whether the pregnancy pre-dated intake of the study drug. Confirmed pregnancies were further evaluated by scrum quantitative hCG(s) and transvaginal ultrasound(s) to determine the estimated fertilization date.
Women could enroll in the study more than once but they must have completed prior study participation before re-enrolling.
The primary efficacy measurement was the pregnancy rate, defined as the number of pregnancies after administration of ulipristal acetate for EC divided by the number of women treated. The primary efficacy analysis compared this pregnancy rate to the pregnancy rate that would have been expected in the absence of EC treatment, which was calculated according to Trussell's method (Trussell et al, 1998) using the pooled recognizable set of conception probabilities and the estimated cycle day of UPI based on self-reported date of last menstrual period, cycle length and date of UPI.
The main secondary efficacy analysis compared the upper bound of the 95% confidence interval of the observed pregnancy rate to a clinical irrelevance threshold of 4%. This threshold corresponds to a reduction by half of the expected 8% pregnancy rate in the absence of contraception as observed in previous international studies (Von Hertzen et al, 1998; Piaggio, 1999; Von Hertzen et al, 2002). The study was to be considered a success only if both the primary efficacy and the main secondary analyses were conclusive. Other secondary analyses included calculation of the prevented fraction, defined as the number of pregnancies prevented (expected minus observed) divided by the number of pregnancies expected, and analysis of trend in pregnancy rates over time (by 24-hour interval) using a logistic regression model.
The population analyzed for primary efficacy excluded women who were lost to follow-up and women ages 36 and older due to reduced fertility in this age category based upon FDA guidance. Further participations in the study allowed by protocol were also excluded from primary efficacy evaluation, as well as pregnancies that were determined as not compatible with study drug failure by a Data Safety Monitoring Board (DSMB) consisting of independent experts.
Study enrolment was stopped once 1200 subjects meeting the criteria for the primary efficacy analysis had completed the study.

[5] = 0-72 h mITT, ulipristal acetate 30 mg or levonorgestrel 1.5 mg single oral dose
[6] = >24 to <=48 hours relative to the previous 24 hrs time interval, mITT
[7] = >48 to <=72 hours relative to the previous 24 hrs time interval, mITT
[8] = >72 to <=96 hours relative to the previous 24 hrs time interval, mITT
[9] = mITT, unprotected intercourse within 72 hours of EC intake (p=0.253)
[10] = mITT, unprotected intercourse within 120 hours of EC intake (p=0.127)
[11] = 48-72 h after UPI, mITT population
[12] = >72-96 h after UPI, mITT population
[13] = >96-120 h after UPI, mITT population

C#C[C@]1(O)CC[C@H]2[C@@H]3CCC4=CC(=O)CC[C@@H]4[C@H]3CC[C@@]21CC [levonorgestrel]
Pregnancy Rate n ([1]; 0-72 h mITT (n = 1694)): 22
Pregnancy Rate (%) [1, 5]: 2.59%
Pregnancy Rate (%) ([1]; 0-72 h mITT, ulipristal acetate 30 mg or levonorgestrel 1.5 mg single oral dose, listed as Levonorgestrel): 2.6%
Pregnancy Rate (%) ([1]; 0-120 h mITT): 2.6%
Pregnancy Rate n ([1]; 0-120 h mITT (n = 1899)): 25
Pregnancy Rate (%) ([1]; 72-120 h mITT): 2.8%
Pregnancy Rate n ([1]; 72-120 h mITT (n = 203)): 3
Odds ratio [1, 6]: 0.73
Odds ratio [1, 7]: 1.17
Odds ratio [1, 8]: 1.08
Odds ratio ([1]; >96 to <=120 hours relative to the previous 24 hrs time interval, mITT): 1.11
prevented expected pregnancies [1, 9]: 52.2%
prevented expected pregnancies [1, 10]: 52.8%

CC(=O)O[C@]1(C(C)=O)CC[C@H]2[C@@H]3CCC4=CC(=O)CCC4=C3[C@@H](c3ccc(N(C)C)cc3)C[C@@]21C [ulipristal acetate, 17α-acetoxy-11β-[4-N,N-dimethylamino-phenyl)-19-norpregna-4,9-diene-3,20-dione]
Overall observed pregnancy rate (%) (pooled) ([2]; 0-24 h): 1.60%
Overall observed pregnancy rate (%) (pooled) ([2]; >24-48 h): 2.07%
Overall observed pregnancy rate (%) (pooled) ([2]; >48-72 h): 2.16%
Overall observed pregnancy rate (%) (pooled) ([2]; >72-96 h): 1.76%
Overall observed pregnancy rate (%) (pooled) ([2]; >96-120 h): 1.04%
efficacy for preventing pregnancy compared with levonorgestrel [3]: as effective as levonorgestrel; also recorded: as efficacious as levonorgestrel
Effectiveness (Prevented Fraction) [4, 11]: 61.9%
Observed Pregnancy Rate (%) [4, 11]: 2.3%
Effectiveness (Prevented Fraction) [4, 12]: 57.9%
Observed Pregnancy Rate (%) [4, 12]: 2.1%
Effectiveness (Prevented Fraction) [4, 13]: 75.0%
Observed Pregnancy Rate (%) [4, 13]: 1.3%
Observed Pregnancy Rate (%) ([4]; All (48-120 h after UPI), mITT / Primary Efficacy Population): 2.1%
Effectiveness (Prevented Fraction) ([4]; All (48-120 h after UPI), mITT population, expected pregnancies by Trussell's method): 62.3%
observed pregnancy rate ([4]; Safety Population of 1533 women, 48-120 h after UPI): 1.9%
pregnancies detected at follow-up ([4]; all women enrolled, before DSMB exclusion of 3 pregnancies): 29
linear trend of pregnancy rates over time (logistic regression model) ([4]; by 24-hour interval, 48-120 h after UPI, p=0.2490): no evidence of change in efficacy over time
Pregnancy Rate n ([1]; 0-72 h mITT (n = 1694)): 15
Pregnancy Rate (%) [1, 5]: 1.78%
Pregnancy Rate (%) ([1]; 0-72 h mITT, ulipristal acetate 30 mg or levonorgestrel 1.5 mg single oral dose, listed as Ulipristal acetate): 1.8%
Pregnancy Rate (%) ([1]; 0-120 h mITT): 1.60%
Pregnancy Rate n ([1]; 0-120 h mITT (n = 1899)): 15
Pregnancy Rate (%) ([1]; 0-120 h mITT, listed as Ulipristal acetate): 1.6%
Pregnancy Rate (%) ([1]; 72-120 h mITT): 0.0%
Pregnancy Rate n ([1]; 72-120 h mITT (n = 203)): no pregnancy was observed
Pregnancy Rate n ([1]; 72-120 h mITT (n = 203), listed as Ulipristal acetate): 0
Pregnancy Rate (%) ([1]; >0 to <=24 hours from unprotected intercourse to treatment, mITT): 1.6%
Pregnancy Rate (%) ([1]; >24 to <=48 hours from unprotected intercourse to treatment, mITT): 2.13% and 2.1%
Odds ratio [1, 6]: 1.33
Pregnancy Rate (%) ([1]; >48 to <=72 hours from unprotected intercourse to treatment, mITT): 1.48% and 1.5%
Odds ratio [1, 7]: 0.69
Odds ratio [1, 8]: 0.00
prevented expected pregnancies [1, 9]: 68.1%
prevented expected pregnancies [1, 10]: 72.2%
pregnancies prevented compared to the expected pregnancy rate, ulipristal acetate versus levonorgestrel ([1]; p<0.05 one-sided randomization test within 120 hours, p<0.05 two-sided between 72 and 120 hours, mITT): significantly more pregnancies were prevented with ulipristal acetate than levonorgestrel

Reference: US20150018325A1, “METHOD FOR LATE POST COITAL CONTRACEPTION USING ULIPRISTAL ACETATE” (LABORATOIRE HRA-PHARMA, priority 2010, published 2015)
